16 compounds from doi:10.1101/2022.09.09.507210v3, “The class XIV myosin of Toxoplasma gondii, TgMyoA, is druggable in an animal model of infection” (biorxiv, 2023) can be followed below.

The nature of data set [1]: in vitro. Details: species or system HepG2. Conditions: human, hff cells, read-out: HFF cells 80 uM. On the procedure:
(§1) The table summarizes the activity of each of the compounds in assays measuring recombinant TgMyoA ATPase activity, parasite growth and mammalian cell toxicity; the data on which the table is based are shown in Suppl. Figures 3-5. ATPase assay data correspond to relative luminescence units × 10^−6 (mean from 3 independent replicates +/-SEM) in the presence of 20 μM compound (Suppl. Figure 3). […] Growth assay data correspond to calculated IC50 and 95% confidence interval from a 5-6 day growth assay (Suppl. Figure 4). […] Toxicity assay entries summarize the results from 72-hour CellTox™ Green toxicity and CellTiter-Glo® viability assays on both human foreskin fibroblasts and HepG2 cells. Thresholds for mild and moderate toxicity and loss of viability compared to vehicle (DMSO) controls are indicated by the colored bars on the right hand side of Suppl. […] Fluorescence was measured daily to quantify parasite growth, in the continued presence of compound, over the next 7 days. RFU = relative fluorescence units. The data shown are the mean ± SEM from two independent biological replicates, each consisting of 3 technical replicates at all time points. […] See Figure 5A for a repeat of these growth assays and IC50 calculations. […] Cell viability/growth was measured using Promega CellTiter-Glo® (top panel) and toxicity was measured using Promega CellTox™ green (bottom panel). 0.1% w/v NaN3 served as a positive control for cytotoxicity / growth inhibition. Results are plotted relative to the DMSO controls. Bars show the mean of three independent experiments ± SEM.

Data set [2] in a line: in vitro. Also noted: species or system HFF. Conditions: human, hepg2 cells, read-out: HepG2 cells 80 uM. How it is done:
as §1

In data set [3] the test system is T1, Toxoplasma gondii RH (tdTomato).
T1 construct: RH
Description: microbe, parasite or virus in culture. Details: species or system HFF (host); tdTomato parasite growth in HFF cells, daily fluorescence, IC50 at day 5-6. To be noted: HFF. On the procedure:
557 558 Parasite growth assays. Fluorescence-based growth assay. To quantify growth in the presence of compound(s), 1x10^4 559 tachyzoites were preincubated with compound for 5 minutes prior to inoculation onto 560 3 wells of a black sided, clear bottom 384-well plate containing a confluent monolayer of HFF cells. For 561 compound assays, parasites expressing tdTomato were incubated with vehicle or serial dilutions of 562 compound, maintaining a constant DMSO concentration (0.2% v/v). The fluorescent signal was 563 quantified daily for 7 days (ex 530/25, em 590/35) on a Biotek synergy 2 plate reader. The IC50 of growth 564 inhibitory compounds was quantified using GraphPad Prism. Plaque assay. 10, 100, 200, or 500 565 parasites were used to inoculate a confluent monolayer of HFF cells in a 12-well plate and incubated for 566 7 days at 37 °C, 5% CO2. Infected monolayers were then washed with phosphate-buffered saline, fixed 567 with 100% EtOH for five minutes, stained with 5X crystal violet solution (12.5 g crystal violet, 125 ml 568 100% EtOH, 500 ml 1% w/v ammonium oxalate) for 5 minutes, washed with PBS, and allowed to dry.  Figure 3: Preliminary structure-activity relationship (SAR) analysis. […] The table summarizes the activity of each of the compounds in assays measuring recombinant TgMyoA ATPase activity, parasite growth and mammalian cell toxicity; the data on which the table is based are shown in Suppl. Figures 3-5. ATPase assay data correspond to relative luminescence units × 10^−6 (mean from 3 independent replicates +/-SEM) in the presence of 20 μM compound (Suppl. Figure 3). […] Growth assay data correspond to calculated IC50 and 95% confidence interval from a 5-6 day growth assay (Suppl. Figure 4). […] Toxicity assay entries summarize the results from 72-hour CellTox™ Green toxicity and CellTiter-Glo® viability assays on both human foreskin fibroblasts and HepG2 cells. Thresholds for mild and moderate toxicity and loss of viability compared to vehicle (DMSO) controls are indicated by the colored bars on the right hand side of Suppl. […] Fluorescence was measured daily to quantify parasite growth, in the continued presence of compound, over the next 7 days. RFU = relative fluorescence units. The data shown are the mean ± SEM from two independent biological replicates, each consisting of 3 technical replicates at all time points. […] See Figure 5A for a repeat of these growth assays and IC50 calculations. […] Cell viability/growth was measured using Promega CellTiter-Glo® (top panel) and toxicity was measured using Promega CellTox™ green (bottom panel). 0.1% w/v NaN3 served as a positive control for cytotoxicity / growth inhibition. Results are plotted relative to the DMSO controls. Bars show the mean of three independent experiments ± SEM.

For data set [4], the target named is T2, rabbit fast skeletal muscle myosin.
T2 construct: gene MYH4; native rabbit fast skeletal myofibrils, full length, with native light chains and thin filaments
Description: myofibril ATPase assay. Format: biochemical, Oryctolagus cuniculus. To be noted: 75% calcium activation (pCa75); up to 40 μM tested. From the text:
myofibril ATPase assay on rabbit fast skeletal muscle myosin

Where two headings read alike, the source gives them in different places.

The IC50 is the point on the concentration scale where inhibition reaches its midpoint. In the case of `COc1ccc(C2(NCc3ccccc3)CC2)cc1` [VEST7, N-benzyl-1-(4-methoxyphenyl)cyclopropan-1-amine], the CC50 at 72 h in “in vitro [1]” and in “in vitro [2]” was more than 80 µM in each case. Further, the IC50 in data set [3] (read-out: Parasite Growth IC50) is more than 80 µM.

`COc1ccc(C2(NCc3cncs3)CC2)cc1` [VEST8, 1-(4-methoxyphenyl)-N-(thiazol-5-ylmethyl)cyclopropan-1-amine]: the CC50 at 72 h in “in vitro [1]” and in “in vitro [2]” was more than 80 µM throughout. The IC50 in data set [3] (read-out: Parasite Growth IC50) was more than 80 µM.

`c1csc(-c2n[nH]cc2CNC2CC2)c1` [VEST1, N-((3-(thiophen-2-yl)-1H-pyrazol-4-yl)methyl)cyclopropanamine]: the CC50 at 72 h in “in vitro [1]” and in the data set “in vitro [2]” was more than 80 µM throughout. Besides, the IC50 in data set [3] (read-out: Parasite Growth IC50) is more than 80 µM.

In the case of `Clc1ccc(C2(NCc3c[nH]nc3-c3cccs3)CC2)cc1` [VEST2, 1-(4-chlorophenyl)-N-((3-(thiophen-2-yl)-1H-pyrazol-4-yl)methyl)cyclopropan-1-amine], the IC50 in data set [3] (read-out: Parasite Growth IC50) came out at 15.5 µM.

As for `COc1ccc([C@H](C)NCc2c[nH]nc2-c2cccs2)cc1` [VEST15, (S)-1-(4-methoxyphenyl)-N-((3-(thiophen-2-yl)-1H-pyrazol-4-yl)methyl)ethan-1-amine], the CC50 at 72 h in the data set “in vitro [2]” is more than 80 µM. For the same compound, the concentration for half-maximal inhibition (IC50) in data set [3] (read-out: Parasite Growth IC50) turned out to be 39.7 µM.

On to `COc1ccc(C2(NCc3ccoc3)CC2)cc1` [VEST9, N-(furan-3-ylmethyl)-1-(4-methoxyphenyl)cyclopropan-1-amine], for which the CC50 at 72 h in the data set “in vitro [1]” and in “in vitro [2]” was more than 80 µM in each case. For the same compound, the IC50 in data set [3] (read-out: Parasite Growth IC50) was more than 80 µM.

For the compound `COc1ccc(C2(NCc3c[nH]nc3-c3ccccc3)CC2)cc1` [VEST6, 1-(4-methoxyphenyl)-N-((3-phenyl-1H-pyrazol-4-yl)methyl)cyclopropan-1-amine], the CC50 at 72 h in “in vitro [1]” and in the data set “in vitro [2]” was more than 80 µM throughout. Further, the IC50 in data set [3] (read-out: Parasite Growth IC50) worked out at 24.9 µM.

As for `COc1ccc(C2(NCc3cc[nH]c3)CC2)cc1` [VEST10, N-((1H-pyrrol-3-yl)methyl)-1-(4-methoxyphenyl)cyclopropan-1-amine], the CC50 at 72 h in “in vitro [1]” and in the data set “in vitro [2]” was more than 80 µM in each case. Besides, in data set [3] (read-out: Parasite Growth IC50), the IC50 is 21.7 µM.

As to `c1ccc(C2(NCc3c[nH]nc3-c3cccs3)CC2)cc1` [VEST5, 1-phenyl-N-((3-(thiophen-2-yl)-1H-pyrazol-4-yl)methyl)cyclopropan-1-amine], the CC50 at 72 h in the data set “in vitro [1]” and in the data set “in vitro [2]” was more than 80 µM in each case. Besides, the IC50 in data set [3] (read-out: Parasite Growth IC50) was determined as 9.9 µM.

With `CC(C)(NCc1c[nH]nc1-c1cccs1)c1ccccc1` [VEST13, 2-phenyl-N-((3-(thiophen-2-yl)-1H-pyrazol-4-yl)methyl)propan-2-amine], the CC50 at 72 h in “in vitro [2]” is more than 80 µM. For the same compound, the IC50 in data set [3] (read-out: Parasite Growth IC50) was 27.1 µM.

Turning to `c1ccc(CNCc2c[nH]nc2-c2cccs2)cc1` [VEST12, N-benzyl-1-(3-(thiophen-2-yl)-1H-pyrazol-4-yl)methanamine], the CC50 at 72 h in “in vitro [2]” is more than 80 µM. In addition, in data set [3] (read-out: Parasite Growth IC50), the IC50 is more than 80 µM.

For `COc1ccc(CNCc2c[nH]nc2-c2cccs2)cc1` [VEST11, N-(4-methoxybenzyl)-1-(3-(thiophen-2-yl)-1H-pyrazol-4-yl)methanamine], the CC50 at 72 h in “in vitro [1]” and in “in vitro [2]” was more than 80 µM each time. For the same compound, the IC50 in data set [3] (read-out: Parasite Growth IC50) was more than 80 µM.

As for `COc1ccc([C@@H](C)NCc2c[nH]nc2-c2cccs2)cc1` [VEST14, (R)-1-(4-methoxyphenyl)-N-((3-(thiophen-2-yl)-1H-pyrazol-4-yl)methyl)ethan-1-amine], in the data set “in vitro [2]”, the CC50 at 72 h is more than 80 µM. The IC50 in data set [3] (read-out: Parasite Growth IC50) was 44.3 µM.

Consider `Clc1ccc(C2(NCc3c[nH]nc3-c3cccs3)CC2)cc1Cl` [VEST4, 1-(3,4-dichlorophenyl)-N-((3-(thiophen-2-yl)-1H-pyrazol-4-yl)methyl)cyclopropan-1-amine], for which the CC50 at 72 h in the data set “in vitro [1]” and in “in vitro [2]” was more than 80 µM each time. Besides, the IC50 in data set [3] (read-out: Parasite Growth IC50) was determined as 31 µM.

On to `COc1ccc(C2(NCc3c[nH]nc3-c3cccs3)CC2)cc1` [KNX-002, 1-(4-methoxyphenyl)-N-((3-(thiophen-2-yl)-1H-pyrazol-4-yl)methyl)cyclopropan-1-amine], for which the IC50 in data set [4] was more than 39.2 µM; in data set [3] (read-out: IC50 (D5)), 14.9 µM; in data set [3] (read-out: Parasite Growth IC50), 19.7 µM. The CC50 at 72 h in “in vitro [1]” and in the data set “in vitro [2]” was more than 80 µM in each case.

With `Cc1ccc(C2(NCc3c[nH]nc3-c3cccs3)CC2)cc1` [VEST3, N-((3-(thiophen-2-yl)-1H-pyrazol-4-yl)methyl)-1-(p-tolyl)cyclopropan-1-amine], the IC50 in data set [3] (read-out: Parasite Growth IC50) was 25.4 µM.
